Reference: patent US20120029187A1, “HALOALKYLSULFONANILIDE DERIVATIVE” (Nissan Chemical Industries, Ltd., priority 2009, published 2012)

How the values were obtained:
Type in all cases: in vivo
common chickweed [1] = test: Test Example 4: herbicidal effect in foliage treatment; details: dose 3.2 g/a, three weeks after application
How it was run: (§1)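 Herbicidal effect was rated on an evaluation scale three weeks after treatment. Plants had been raised 14 days at 25 to 30° C in sterilized diluvial soil, then received foliar sprays of emulsifiable concentrate diluted in water at predetermined doses expressed as g per are.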

Italian ryegrass [2] = test: as above; details: dose 3.2 g/a, three weeks after application
How it was run: as §1

water foxtail [3] = test: as above; details: dose 3.2 g/a, three weeks after application
How it was run: as §1

barnyardgrass [4] = test: as above; details: dose 3.2 g/a, three weeks after application
How it was run: as §1

redroot pigweed [5] = test: as above; details: dose 3.2 g/a, three weeks after application
How it was run: as §1

common lambsquater [6] = test: as above; details: dose 3.2 g/a, three weeks after application
How it was run: as §1

beadstraw = test: as above; details: dose 3.2 g/a, three weeks after application
How it was run: as §1

common ragweed [7] = test: as above; details: dose 3.2 g/a, three weeks after application
How it was run: as §1

large crabgrass [8] = test: as above; details: dose 3.2 g/a, three weeks after application
How it was run: as §1

giant foxtail [9] = test: as above; details: dose 3.2 g/a, three weeks after application
How it was run: as §1

posumbu knotweed [10] = test: as above; details: dose 3.2 g/a, three weeks after application
How it was run: as §1

velvetleaf [11] = test: as above; details: dose 3.2 g/a, three weeks after application
How it was run: as §1

transplanted rice = test: Test Example 1: preemergence treatment under submerged conditions, effect on crop; details: dose 2.52 g/a
How it was run: (§2)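 Score 0–5 by mortality (5: ≥90%; 0: <5%), read 3 weeks post-application. Paddy-type cups: alluvial soil under 4 cm water, weeds seeded plus transplanted 2.5-leaf rice; diluted EC dosed onto water surface same day as sowing, g/a basis; greenhouse 25 to 30° C.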

common chickweed [12] = test: Test Example 3: herbicidal effects in soil treatment; details: dose 3.2 g/a
How it was run: (§3)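 Seeds were sown in sterilized diluvial soil and covered with about 1.5 cm of soil. Compounds, formulated as emulsifiable concentrates and diluted with water, were sprayed evenly over the soil surface at set doses in g/a. Herbicidal effect was scored on a rating scale three weeks later.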

Italian ryegrass [13] = test: as above; details: dose 3.2 g/a
How it was run: as §3

water foxtail [14] = test: as above; details: dose 3.2 g/a
How it was run: as §3

barnyardgrass [15] = test: as above; details: dose 3.2 g/a
How it was run: as §3

redroot pigweed [16] = test: as above; details: dose 3.2 g/a
How it was run: as §3

common lambsquater [17] = test: as above; details: dose 3.2 g/a
How it was run: as §3

common ragweed [18] = test: as above; details: dose 3.2 g/a
How it was run: as §3

large crabgrass [19] = test: as above; details: dose 3.2 g/a
How it was run: as §3

giant foxtail [20] = test: as above; details: dose 3.2 g/a
How it was run: as §3

posumbu knotweed [21] = test: as above; details: dose 3.2 g/a
How it was run: as §3

velvetleaf [22] = test: as above; details: dose 3.2 g/a
How it was run: as §3

barnyardgrass [23] = test: Test Example 1: herbicidal effects in preemergence treatment under submerged conditions; details: dose 2.52 g/a
How it was run: as §2

bulrush [24] = test: as above; details: dose 2.52 g/a
How it was run: as §2

ducksalad [25] = test: as above; details: dose 2.52 g/a
How it was run: as §2

barnyardgrass [26] = test: Test Example 2: herbicidal effects during the vegetation period under submerged conditions; details: treatment during the vegetation period under submerged conditions; dose 2.52 g/a
How it was run: (§4)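 Barnyardgrass, bulrush and ducksalad were co-sown in alluvial soil flooded to 4 cm and grown in a greenhouse at 25 to 30° C. At the 1- or 2-leaf stage, water-diluted emulsifiable concentrates went onto the water surface at set doses (g/a). Herbicidal effect was scored three weeks later on a graded scale.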

bulrush [27] = test: as above; details: treatment during the vegetation period under submerged conditions; dose 2.52 g/a
How it was run: as §4

ducksalad [28] = test: as above; details: treatment during the vegetation period under submerged conditions; dose 2.52 g/a
How it was run: as §4

Structure (SMILES) | N: common chickweed, herbicidal effect (common chickweed [1]) | H: Italian ryegrass, herbicidal effect (Italian ryegrass [2]) | G: water foxtail, herbicidal effect (water foxtail [3]) | A: barnyardgrass, herbicidal effect (barnyardgrass [4]) | K: redroot pigweed, herbicidal effect (redroot pigweed [5]) | L: common lambsquater, herbicidal effect (common lambsquater [6]) | O: beadstraw, herbicidal effect (beadstraw) | J: common ragweed, herbicidal effect (common ragweed [7]) | D: large crabgrass, herbicidal effect (large crabgrass [8]) | E: giant foxtail, herbicidal effect (giant foxtail [9]) | M: posumbu knotweed, herbicidal effect (posumbu knotweed [10]) | I: velvetleaf, herbicidal effect (velvetleaf [11]) | a: transplanted rice, effect on crop (evaluation scale 0-5) (transplanted rice) | N: common chickweed, herbicidal effect (evaluation scale 0-5) (common chickweed [12]) | H: Italian ryegrass, herbicidal effect (evaluation scale 0-5) (Italian ryegrass [13]) | G: water foxtail, herbicidal effect (evaluation scale 0-5) (water foxtail [14]) | A: barnyardgrass, herbicidal effect (evaluation scale 0-5) (barnyardgrass [15]) | K: redroot pigweed, herbicidal effect (evaluation scale 0-5) (redroot pigweed [16]) | L: common lambsquater, herbicidal effect (evaluation scale 0-5) (common lambsquater [17]) | J: common ragweed, herbicidal effect (evaluation scale 0-5) (common ragweed [18]) | other results
CCOC(=O)N(c1ccccc1CN1COC(C)(CC)CC1=O)S(=O)(=O)C(F)(F)F (stereo not drawn) [II-42] | 4 (mortality of at least 70% and less than 90%) | 3 (mortality of at least 40% and less than 70%) | 5 (mortality of 90% or above (nearly complete death)) | 5 (mortality of 90% or above (nearly complete death)) | 0 (mortality of less than 5% (almost ineffective)) | 3 (mortality of at least 40% and less than 70%) | 3 (mortality of at least 40% and less than 70%) | 3 (mortality of at least 40% and less than 70%) | 3 (mortality of at least 40% and less than 70%) | 5 (mortality of 90% or above (nearly complete death)) | 0 (mortality of less than 5% (almost ineffective)) | 5 (mortality of 90% or above (nearly complete death)) | 0 (mortality of less than 5% (almost ineffective)) | 5 (mortality of 90% or above (nearly complete death)) | 5 (mortality of 90% or above (nearly complete death)) | 5 (mortality of 90% or above (nearly complete death)) | 5 (mortality of 90% or above (nearly complete death)) | 3 (mortality of at least 40% and less than 70%) | 0 (mortality of less than 5% (almost ineffective)) | 4 (mortality of at least 70% and less than 90%) | D: large crabgrass, herbicidal effect (evaluation scale 0-5) (large crabgrass [19]): 5 (mortality of 90% or above (nearly complete death)); E: giant foxtail, herbicidal effect (evaluation scale 0-5) (giant foxtail [20]): 1 (mortality of at least 5% and less than 20%); M: posumbu knotweed, herbicidal effect (evaluation scale 0-5) (posumbu knotweed [21]): 4 (mortality of at least 70% and less than 90%); I: velvetleaf, herbicidal effect (evaluation scale 0-5) (velvetleaf [22]): 5 (mortality of 90% or above (nearly complete death)); A: barnyardgrass, herbicidal effect (evaluation scale 0-5) (barnyardgrass [23]): 5 (mortality of 90% or above (nearly complete death)); B: bulrush, herbicidal effect (evaluation scale 0-5) (bulrush [24]): 5 (mortality of 90% or above (nearly complete death)); C: ducksalad, herbicidal effect (evaluation scale 0-5) (ducksalad [25]): 5 (mortality of 90% or above (nearly complete death)); A: barnyardgrass, herbicidal effect (evaluation scale 0-5) (barnyardgrass [26]): 5 (mortality of 90% or above (nearly complete death)); B: bulrush, herbicidal effect (evaluation scale 0-5) (bulrush [27]): 5 (mortality of 90% or above (nearly complete death)); C: ducksalad, herbicidal effect (evaluation scale 0-5) (ducksalad [28]): 5 (mortality of 90% or above (nearly complete death))
CCOC(=O)N(c1ccccc1CN1COC(C)(C(F)(F)F)CC1=O)S(=O)(=O)C(F)(F)F (stereo not drawn) [II-49] | 3 (mortality of at least 40% and less than 70%) | 0 (mortality of less than 5% (almost ineffective)) | 3 (mortality of at least 40% and less than 70%) | 4 (mortality of at least 70% and less than 90%) | 0 (mortality of less than 5% (almost ineffective)) | 3 (mortality of at least 40% and less than 70%) | 4 (mortality of at least 70% and less than 90%) | 3 (mortality of at least 40% and less than 70%) | 0 (mortality of less than 5% (almost ineffective)) | 3 (mortality of at least 40% and less than 70%) | 3 (mortality of at least 40% and less than 70%) | 0 (mortality of less than 5% (almost ineffective)) | 0 (mortality of less than 5% (almost ineffective)) | 4 (mortality of at least 70% and less than 90%) | 3 (mortality of at least 40% and less than 70%) | 5 (mortality of 90% or above (nearly complete death)) | 3 (mortality of at least 40% and less than 70%) | 0 (mortality of less than 5% (almost ineffective)) | 2 (mortality of at least 20% and less than 40%) | 4 (mortality of at least 70% and less than 90%) | D: large crabgrass, herbicidal effect (evaluation scale 0-5) (large crabgrass [19]): 3 (mortality of at least 40% and less than 70%); E: giant foxtail, herbicidal effect (evaluation scale 0-5) (giant foxtail [20]): 3 (mortality of at least 40% and less than 70%); M: posumbu knotweed, herbicidal effect (evaluation scale 0-5) (posumbu knotweed [21]): 4 (mortality of at least 70% and less than 90%); I: velvetleaf, herbicidal effect (evaluation scale 0-5) (velvetleaf [22]): 0 (mortality of less than 5% (almost ineffective)); A: barnyardgrass, herbicidal effect (evaluation scale 0-5) (barnyardgrass [23]): 5 (mortality of 90% or above (nearly complete death)); B: bulrush, herbicidal effect (evaluation scale 0-5) (bulrush [24]): 5 (mortality of 90% or above (nearly complete death)); C: ducksalad, herbicidal effect (evaluation scale 0-5) (ducksalad [25]): 5 (mortality of 90% or above (nearly complete death)); A: barnyardgrass, herbicidal effect (evaluation scale 0-5) (barnyardgrass [26]): 5 (mortality of 90% or above (nearly complete death)); B: bulrush, herbicidal effect (evaluation scale 0-5) (bulrush [27]): 5 (mortality of 90% or above (nearly complete death)); C: ducksalad, herbicidal effect (evaluation scale 0-5) (ducksalad [28]): 5 (mortality of 90% or above (nearly complete death))
